From patent publication US10336792B2, “Antimicrobial peptide dendrimers” (priority 2014, dated 2019) come the findings set out here.

≈ marks a conversion by molar mass, not a printed value. Positions of bridges follow the written chain, without caps; N, C: chain ends. Residues, ends and D or L forms follow the SMILES beside them. Groups on a side chain read outwards from the residue. Chains are numbered I, II in the order given. *: point of attachment. LeuLys(Leu) = CC(C)C[C@H](N)C(=O)NCCCC[C@H](NC(=O)[C@@H](N)CC(C)C)C(=O)*; X2 = NCCCC[C@H](N)C(=O)NCCCC[C@H](NC(=O)[C@@H](N)CCCCN)C(=O)*; Palmitoyl = CCCCCCCCCCCCCCCC(=O)* A value given as a limit tells only on which side of the number the result lay.

What all share (assay type): cell-based
Experiment [1] deals with Escherichia coli (strain DH5α). The following applies: DH5α. As for the experimental part:
(§1) Antimicrobial activity was assayed against Bacillus subtilis (strain BR151), Escherichia coli (strain DH5α) and Pseudomonas aeruginosa (strain PA01). Microdilution broth method was used to determine the minimal inhibitory concentration (MIC). A colony of bacteria was grown in LB-medium overnight at 37° C. The concentration was quantified by measuring absorbance at 600 nm and diluted to OD600=0.1 (1×10^8 CFU/mL). The samples were prepared as stock solutions of 1 mg mL^−1 in H2O and diluted serially by ⅔ in nutrient LB in a 96-well microtiterplate (Cornstar, polypropylene, untreated). The sample solutions (50 μL) were mixed with the diluted bacterial suspension with an OD600 nm of 0.001 (50 μL). […] The plates were incubated at 37° C. until satisfactory growth (18-24 h). For each test, two columns of the plate were kept for sterility control (SC, broth only) and growth control (GC, broth with bacterial inoculums, no antibiotics). 10 μL of a solution of MTT (0.1% in H2O) was added to each well. The minimal inhibitory concentration (MIC) was defined as the lowest concentration of the antimicrobial substance (peptide dendrimer) that inhibited visible growth of the tested bacteria (yellow) with the unaided eye. For microbiological study the linear peptide LysTyrLysLysAlaLeuLysLysLeuAlaLysLeuLeu (SEQ ID No. 1) was used as reference.
(§2) The AMPD library was tested for their antimicrobial activity against B. subtilis BR151, a Gram-positive bacterium and E. coli DH5α, another Gram-negative bacterium, to cover a broader spectrum of different bacteria. […] Therefore no explicit SAR can be established, but clearly the hydrophobic amino acids Ala and Tyr seem to have a significant influence in reducing activity.

Experiment [2] concerns Bacillus subtilis (strain BR151). Particulars: strain BR151. As for the experimental part:
as §1, §2

Experiment [3] has as its system Pseudomonas aeruginosa (strain PA01). Nature of the experiment: microbe, parasite or virus in culture. Particulars: strain. As for the experimental part: as §1
All peptides were tested for their activity against P. aeruginosa PAO1 in a broth dilution assay (Wiegand, I. et al., 2008, Nat. Protoc., 3, 163-75; Clinical and Laboratory Standards Institute document M7-A7 7th Edition) to determine the MIC (minimal inhibitory concentration) values. The stock solutions of the peptide dendrimers were diluted serially by ⅔ in nutrient LB in 96-well microtiter plates. Bacteria were grown in nutrient LB overnight at 37° C. After dilution the bacteria were added to the peptides and incubated overnight (18-24 h) at 37° C. […] The position of the amino acids between the branching units seems to be optimal if the hydrophobic amino acid is the first counting from C-terminus and the charged one is on the second position. Introducing Ala as additional hydrophobic amino acid reduces activity (MSt-120). […] Also assembling charged or hydrophobic sections between the branching units leads to loss of activity whereas altering L-amino acids to D-amino acids maintains activity leading to the hypothesis that the mechanism of action should not be receptor mediated.

In the case of `CCCCCCCCCCCCCCCC(=O)NCCCC[C@H](NC(=O)[C@H](CC(C)C)NC(=O)[C@H](CCCCN)NC(=O)[C@H](CCCCNC(=O)[C@H](CC(C)C)NC(=O)[C@H](CCCCN)NC(=O)[C@H](CCCCNC(=O)[C@H](CC(C)C)NC(=O)[C@@H](N)CCCCN)NC(=O)[C@H](CC(C)C)NC(=O)[C@@H](N)CCCCN)NC(=O)[C@H](CC(C)C)NC(=O)[C@H](CCCCN)NC(=O)[C@H](CCCCNC(=O)[C@H](CC(C)C)NC(=O)[C@@H](N)CCCCN)NC(=O)[C@H](CC(C)C)NC(=O)[C@@H](N)CCCCN)C(N)=O` [MSt-302, (KL)4(KKL)2(KKLKC16)] (I: H-KLK([Leu-Lys])KLKKLK(Palmitoyl)-NH2 / II: H-KLK([Leu-Lys])KL; amide I:6-II:C), the “MIC E. coli DH5α” value in experiment [1] worked out at 12 µg/mL (≈ 4.88 µM).
`CC(C)C[C@H](NC(=O)[C@H](CCCCNC(=O)[C@H](CC(C)C)NC(=O)[C@H](CCCCNC(=O)[C@H](CCCCN)NC(=O)[C@H](CCCCNC(=O)[C@@H](N)CCCCN)NC(=O)[C@@H](N)CCCCN)NC(=O)[C@H](CCCCN)NC(=O)[C@H](CCCCNC(=O)[C@@H](N)CCCCN)NC(=O)[C@@H](N)CCCCN)NC(=O)[C@H](CC(C)C)NC(=O)[C@H](CCCCNC(=O)[C@H](CCCCN)NC(=O)[C@H](CCCCNC(=O)[C@@H](N)CCCCN)NC(=O)[C@@H](N)CCCCN)NC(=O)[C@H](CCCCN)NC(=O)[C@H](CCCCNC(=O)[C@@H](N)CCCCN)NC(=O)[C@@H](N)CCCCN)C(N)=O` [MSt-148, (K)8(KK)4(KL)2(KL)NH2] (I: H-KK(Lys)KK([Lys-X2])LKL-NH2 / II: H-KK(Lys)KK([Lys-X2])L; amide I:6-II:C; N-terminus assumed): the “MIC B. subtilis BR151” value in experiment [2] turned out to be 12 µg/mL (≈ 4.3 µM). For the same compound, the “MIC E. coli DH5α” value in experiment [1] was above 90 µg/mL.
For the compound `CC(C)C[C@H](NC(=O)[C@H](CC(C)C)NC(=O)[C@H](CCCCNC(=O)[C@H](CCCCN)NC(=O)[C@H](CCCCN)NC(=O)[C@H](CCCCNC(=O)[C@H](CC(C)C)NC(=O)[C@H](CC(C)C)NC(=O)[C@H](CCCCNC(=O)[C@H](CCCCN)NC(=O)[C@@H](N)CCCCN)NC(=O)[C@H](CCCCN)NC(=O)[C@@H](N)CCCCN)NC(=O)[C@H](CC(C)C)NC(=O)[C@H](CC(C)C)NC(=O)[C@H](CCCCNC(=O)[C@H](CCCCN)NC(=O)[C@@H](N)CCCCN)NC(=O)[C@H](CCCCN)NC(=O)[C@@H](N)CCCCN)NC(=O)[C@H](CCCCN)NC(=O)[C@H](CCCCN)NC(=O)[C@H](CCCCNC(=O)[C@H](CC(C)C)NC(=O)[C@H](CC(C)C)NC(=O)[C@H](CCCCNC(=O)[C@H](CCCCN)NC(=O)[C@@H](N)CCCCN)NC(=O)[C@H](CCCCN)NC(=O)[C@@H](N)CCCCN)NC(=O)[C@H](CC(C)C)NC(=O)[C@H](CC(C)C)NC(=O)[C@H](CCCCNC(=O)[C@H](CCCCN)NC(=O)[C@@H](N)CCCCN)NC(=O)[C@H](CCCCN)NC(=O)[C@@H](N)CCCCN)C(N)=O` [MSt-179, (KK)8(KLL)4(KKK)2(KLL)] (I: H-KKK([Lys-Lys])LLKKKKLL-NH2 / II: H-KKK([Lys-Lys])LLKKK / III: H-KKK([Lys-Lys])LL / IV: H-KKK([Lys-Lys])LL; amide I:6-IV:C, I:9-II:C, II:6-III:C; N-terminus assumed), the “MIC E. coli DH5α” value in experiment [1] was above 66 µg/mL.
In the case of `CC(C)C[C@H](NC(=O)[C@H](CC(C)C)NC(=O)[C@H](CCCCNC(=O)[C@H](CC(C)C)NC(=O)[C@H](CC(C)C)NC(=O)[C@H](CCCCNC(=O)[C@H](CCCCN)NC(=O)[C@H](CCCCN)NC(=O)[C@H](CCCCNC(=O)[C@H](CCCCN)NC(=O)[C@@H](N)CCCCN)NC(=O)[C@H](CCCCN)NC(=O)[C@@H](N)CCCCN)NC(=O)[C@H](CCCCN)NC(=O)[C@H](CCCCN)NC(=O)[C@H](CCCCNC(=O)[C@H](CCCCN)NC(=O)[C@@H](N)CCCCN)NC(=O)[C@H](CCCCN)NC(=O)[C@@H](N)CCCCN)NC(=O)[C@H](CC(C)C)NC(=O)[C@H](CC(C)C)NC(=O)[C@H](CCCCNC(=O)[C@H](CCCCN)NC(=O)[C@H](CCCCN)NC(=O)[C@H](CCCCNC(=O)[C@H](CCCCN)NC(=O)[C@@H](N)CCCCN)NC(=O)[C@H](CCCCN)NC(=O)[C@@H](N)CCCCN)NC(=O)[C@H](CCCCN)NC(=O)[C@H](CCCCN)NC(=O)[C@H](CCCCNC(=O)[C@H](CCCCN)NC(=O)[C@@H](N)CCCCN)NC(=O)[C@H](CCCCN)NC(=O)[C@@H](N)CCCCN)C(N)=O` [MSt-140, (KK)8(KKK)4(KLL)2(KLL)] (I: H-KKK([Lys-Lys])KKKLLKLL-NH2 / II: H-KKK([Lys-Lys])KKKLL / III: H-KKK([Lys-Lys])KK / IV: H-KKK([Lys-Lys])KK; amide I:6-IV:C, I:9-II:C, II:6-III:C), the “MIC B. subtilis BR151” value in experiment [2] worked out at 6 µg/mL (≈ 1.28 µM). Further, in experiment [1], the “MIC E. coli DH5α” value was above 95 µg/mL.
With `CCCCCCCCCCCCCCCC(=O)NCCCC[C@H](NC(=O)[C@H](CC(C)C)NC(=O)[C@H](CCCCN)NC(=O)[C@H](CCCCNC(=O)[C@H](CC(C)C)NC(=O)[C@H](CCCCN)NC(=O)[C@H](CCCCNC(=O)[C@H](CC(C)C)NC(=O)[C@H](CCCCN)NC(=O)[C@H](CCCCNC(=O)[C@H](CC(C)C)NC(=O)[C@@H](N)CCCCN)NC(=O)[C@H](CC(C)C)NC(=O)[C@@H](N)CCCCN)NC(=O)[C@H](CC(C)C)NC(=O)[C@H](CCCCN)NC(=O)[C@H](CCCCNC(=O)[C@H](CC(C)C)NC(=O)[C@@H](N)CCCCN)NC(=O)[C@H](CC(C)C)NC(=O)[C@@H](N)CCCCN)NC(=O)[C@H](CC(C)C)NC(=O)[C@H](CCCCN)NC(=O)[C@H](CCCCNC(=O)[C@H](CC(C)C)NC(=O)[C@H](CCCCN)NC(=O)[C@H](CCCCNC(=O)[C@H](CC(C)C)NC(=O)[C@@H](N)CCCCN)NC(=O)[C@H](CC(C)C)NC(=O)[C@@H](N)CCCCN)NC(=O)[C@H](CC(C)C)NC(=O)[C@H](CCCCN)NC(=O)[C@H](CCCCNC(=O)[C@H](CC(C)C)NC(=O)[C@@H](N)CCCCN)NC(=O)[C@H](CC(C)C)NC(=O)[C@@H](N)CCCCN)C(N)=O` [MSt-301, (KL)8(KKL)4(KKL)2(KKLKC16)] (I: H-KLK([Leu-Lys])KLKKLKKLK(Palmitoyl)-NH2 / II: H-KLK([Leu-Lys])KLKKL / III: H-KLK([Leu-Lys])KL / IV: H-KLK([Leu-Lys])KL; amide I:6-IV:C, I:9-II:C, II:6-III:C), in experiment [3], the “MIC P. aeruginosa PAO1” value is 11 µg/mL (≈ 2.24 µM). For the same compound, in experiment [1], the “MIC E. coli DH5α” value stood at 8 µg/mL (≈ 1.63 µM).
On to `CC(C)C[C@H](NC(=O)[C@H](CCCCNC(=O)[C@@H](N)CC(C)C)NC(=O)[C@@H](N)CC(C)C)C(=O)NCCCC[C@H](NC(=O)[C@H](CC(C)C)NC(=O)[C@H](CCCCNC(=O)[C@@H](N)CC(C)C)NC(=O)[C@@H](N)CC(C)C)C(=O)N[C@@H](CCCCN)C(=O)NCCCC[C@H](NC(=O)[C@H](CCCCN)NC(=O)[C@H](CCCCNC(=O)[C@H](CC(C)C)NC(=O)[C@H](CCCCNC(=O)[C@@H](N)CC(C)C)NC(=O)[C@@H](N)CC(C)C)NC(=O)[C@H](CC(C)C)NC(=O)[C@H](CCCCNC(=O)[C@@H](N)CC(C)C)NC(=O)[C@@H](N)CC(C)C)C(=O)N[C@@H](CCCCN)C(N)=O` [MSt-149, (L)8(KL)4(KK)2(KK)NH2] (I: H-LK(Leu)LK([Leu-LeuLys(Leu)])KKK-NH2 / II: H-LK(Leu)LK([Leu-LeuLys(Leu)])K; amide I:6-II:C; N-terminus assumed), for which, in experiment [2], the “MIC B. subtilis BR151” value was determined as 8 µg/mL (≈ 3.01 µM). In addition, the “MIC E. coli DH5α” value in experiment [1] is above 90 µg/mL.
Take `CC(C)C[C@H](NC(=O)[C@H](CCCCNC(=O)[C@H](CCCCN)NC(=O)[C@H](CC(C)C)NC(=O)[C@H](CCCCNC(=O)[C@H](CCCCN)NC(=O)[C@H](CC(C)C)NC(=O)[C@H](CCCCNC(=O)[C@H](CCCCN)NC(=O)[C@@H](N)CC(C)C)NC(=O)[C@H](CCCCN)NC(=O)[C@@H](N)CC(C)C)NC(=O)[C@H](CCCCN)NC(=O)[C@H](CC(C)C)NC(=O)[C@H](CCCCNC(=O)[C@H](CCCCN)NC(=O)[C@@H](N)CC(C)C)NC(=O)[C@H](CCCCN)NC(=O)[C@@H](N)CC(C)C)NC(=O)[C@H](CCCCN)NC(=O)[C@H](CC(C)C)NC(=O)[C@H](CCCCNC(=O)[C@H](CCCCN)NC(=O)[C@H](CC(C)C)NC(=O)[C@H](CCCCNC(=O)[C@H](CCCCN)NC(=O)[C@@H](N)CC(C)C)NC(=O)[C@H](CCCCN)NC(=O)[C@@H](N)CC(C)C)NC(=O)[C@H](CCCCN)NC(=O)[C@H](CC(C)C)NC(=O)[C@H](CCCCNC(=O)[C@H](CCCCN)NC(=O)[C@@H](N)CC(C)C)NC(=O)[C@H](CCCCN)NC(=O)[C@@H](N)CC(C)C)C(=O)N[C@@H](CCCCN)C(N)=O` [MSt-199, (LK)8(KLK)4(KLK)2(KLK)] (I: H-LKK([Lys-Leu])LKKLKKLK-NH2 / II: H-LKK([Lys-Leu])LKKLK / III: H-LKK([Lys-Leu])LK / IV: H-LKK([Lys-Leu])LK; amide I:6-IV:C, I:9-II:C, II:6-III:C): the “MIC P. aeruginosa PAO1” value in experiment [3] was determined as 9 µg/mL (≈ 1.98 µM). In experiment [2], the “MIC B. subtilis BR151” value was found to be 3 µg/mL (≈ 0.662 µM).
